According to patent publication US10280198B2, “Therapeutic agents for reducing parathyroid hormone levels” (KAI PHARMACEUTICALS, INC., priority 2009, dated 2019):
pEC50: −log10 of the molar value. Read-outs that look alike come from different tables or passages of the source. Square brackets hold non-standard residues; d marks the D form. Peptide text beside a SMILES is read from it. βAla = NCCC(=O)O

How the values were obtained:
[1] = biological target: T1, human calcium-sensing receptor (CaSR) (Homo sapiens, UniProt P41180); assay: In vitro cell assay in HEK-293 expressing the human calcium-sensing receptor (IP1 production); format: cell-based
T1 construct: expressed in transfected cells; host or cells: HEK 293T cells, transiently transfected (lipofectamine 2000); in some cases HEK293 cells stably transfected
T1 sequence (P41180 20-1078): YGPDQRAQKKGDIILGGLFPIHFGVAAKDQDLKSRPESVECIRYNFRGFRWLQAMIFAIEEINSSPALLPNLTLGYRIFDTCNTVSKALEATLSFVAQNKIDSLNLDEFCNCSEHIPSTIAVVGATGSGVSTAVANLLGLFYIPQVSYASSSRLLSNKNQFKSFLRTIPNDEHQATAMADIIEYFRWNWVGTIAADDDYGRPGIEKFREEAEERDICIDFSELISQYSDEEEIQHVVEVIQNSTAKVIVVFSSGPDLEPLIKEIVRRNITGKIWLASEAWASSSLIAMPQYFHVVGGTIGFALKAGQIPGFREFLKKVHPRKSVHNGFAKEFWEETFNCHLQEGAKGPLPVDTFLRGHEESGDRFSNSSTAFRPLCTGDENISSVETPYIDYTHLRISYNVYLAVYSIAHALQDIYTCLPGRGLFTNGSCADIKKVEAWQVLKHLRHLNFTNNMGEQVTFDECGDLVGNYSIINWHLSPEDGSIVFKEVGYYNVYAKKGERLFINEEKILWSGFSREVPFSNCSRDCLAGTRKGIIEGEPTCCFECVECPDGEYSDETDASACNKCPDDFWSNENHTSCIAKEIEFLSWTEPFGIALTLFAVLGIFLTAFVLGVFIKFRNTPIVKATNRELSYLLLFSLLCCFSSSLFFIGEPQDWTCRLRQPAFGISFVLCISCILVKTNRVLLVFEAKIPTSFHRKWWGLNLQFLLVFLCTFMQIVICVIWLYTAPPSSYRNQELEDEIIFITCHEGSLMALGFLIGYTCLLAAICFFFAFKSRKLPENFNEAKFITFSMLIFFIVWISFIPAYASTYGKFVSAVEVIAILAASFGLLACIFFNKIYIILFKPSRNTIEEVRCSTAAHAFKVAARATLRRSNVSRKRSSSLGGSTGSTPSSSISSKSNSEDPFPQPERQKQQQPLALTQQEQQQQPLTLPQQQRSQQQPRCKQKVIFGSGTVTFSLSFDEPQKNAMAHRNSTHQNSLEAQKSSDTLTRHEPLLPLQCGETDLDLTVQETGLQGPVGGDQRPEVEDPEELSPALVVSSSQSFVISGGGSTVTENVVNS
Description: The activity of a variety of peptides and conjugates was tested against the human CaSR. These studies were conducted by measuring IP1 production in HEK293 cells that express the human CaSR. Each peptide was tested in eight different concentrations, in duplicates, to establish a dose response curve. Curve fitting was performed using GraphPad Prism. In Table 5, and throughout the specification, residues provided in capital letters are L-amino acids, while lower case letters indicate D-amino acids. “Ac” indicates an acetyl capping group, “NH2” indicates an amide capping group, “Ac-bAla” is an acetylated beta-alanine, “GSH” indicates reduced glutathione, “GS” indicates oxidized glutathione, “PEG” refers to polyethylene glycol, “PEG2” and “PEGS” refer to polyethylene glycol moieties of 2 kDa and 5 kDa, respectively, and “Mpa” refers to mercaptopropionic acid.
The day after, these cells were transfected with human CaSR receptor using lipofectamine 2000 transfection reagent 24 hrs post transfection, cells were seeded in 384 well plates at 8,000 cells/well. […] In some cases, EC50 values were determined by measuring inositol monophosphate production in the HEK293 cells, stably transfected with the human calcium-sensing receptor (see Table 1).
Cells were incubated with compounds at various concentrations (1 mM or 300 μM as the highest and further ½ log serial dilutions) at 37° C. for 1.5 hrs before reaction termination. […] In brief, incubation with the compound was terminated by sequentially adding D2 labeled-IP1 and cryptate-labeled anti-IP1 in lysis buffer and further incubating at room temperature for 60 minutes. […] Non-transfected 293 cells were used as negative control.
IP1 concentrations were calculated from standard curves (generated with Graph Pad Prism ver. 4) using known concentrations of IP1 standards.

[2] = test system: plasma PTH; assay: In vivo PTH lowering after IV bolus in isoflurane-anesthetized normal Sprague Dawley rats; parameters: species or system rat; settings: for duration of decreased PTH: 0.5 mg/kg IV bolus, FIG. 5; for duration of decreased PTH / 0.5 mg/kg IV bolus % PTH AUC of saline control: normal rats; for % PTH reduction of baseline at 1 hour post IV admin. of 0.5 mg/kg compound: isoflurane-anesthetized normal rats, 0.5 mg/kg IV
In short: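 Peptides were given as a 0.5 mg/kg IV bolus to normal Sprague Dawley rats kept under isoflurane throughout, with saline bolus controls.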

[3] = test system: rat peritoneal mast cells; assay: In vitro histamine induction in rat peritoneal mast cells; format: cell-based
In short: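 Mast cells from peritoneal lavage of Sprague Dawley rats were incubated with compound at 10 μM for 15 min at 37 °C in HBSS + 25 mM HEPES pH 7.4. Supernatant histamine measured by EIA; response expressed as fold change versus pre-incubation levels.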

[4] = Table 1, IP1 in HEK293 cells expressing human CaSR, read-out: In vitro EC50
[5] = Table 5, IP1 production in HEK293 cells expressing human CaSR, eight concentrations in duplicate, read-out: EC50 in CaSR in vitro assay
[6] = 0.5 mg/kg single IV administration
[7] = Table 1, PTH at 1, 2, 3, 4 h, AUCcmpd treated/AUCsaline control*100

pEC50 [1, 5]	Histamine in vitro Fold change of non-treated at 10 uM [3]	Compound	also measured
5.96	6.6 fold	CC(=O)N[C@H](CS)C(=O)N[C@H](C)C(=O)N[C@H](CCCNC(=N)N)C(=O)N[C@H](CCCNC(=N)N)C(=O)N[C@H](CCCNC(=N)N)C(=O)N[C@H](CCCNC(=N)N)C(=O)N[C@H](CCCNC(=N)N)C(N)=O [SEQ ID NO: 8, Ac-carrrrr-NH2] (Ac-[dC][dA][dR][dR][dR][dR][dR]-NH2)	pEC50 [1, 4]: 5.96; duration of decreased PTH [2]: at least four hours; PTH-lowering activity in normal rats [2, 6]: below the detection limit or essentially zero; % PTH reduction of baseline at 1 hour post IV admin. of 0.5 mg/kg compound ([2]; Table 1): 0%; 0.5 mg/kg IV bolus % PTH AUC of saline control [2, 7]: 0%
6.00	6.8 fold	CC(=O)N[C@H](CS)C(=O)N[C@H](CCCNC(=N)N)C(=O)N[C@H](C)C(=O)N[C@H](CCCNC(=N)N)C(=O)N[C@H](CCCNC(=N)N)C(=O)N[C@H](CCCNC(=N)N)C(=O)N[C@H](CCCNC(=N)N)C(N)=O [SEQ ID NO: 9, Ac-crarrrr-NH2] (Ac-[dC][dR][dA][dR][dR][dR][dR]-NH2)	pEC50 [1, 4]: 6.00; % PTH reduction of baseline at 1 hour post IV admin. of 0.5 mg/kg compound ([2]; Table 1): 0%; 0.5 mg/kg IV bolus % PTH AUC of saline control [2, 7]: 7%
5.96	5.3 fold	CC(=O)N[C@H](CS)C(=O)N[C@H](CCCNC(=N)N)C(=O)N[C@H](CCCNC(=N)N)C(=O)N[C@H](C)C(=O)N[C@H](CCCNC(=N)N)C(=O)N[C@H](CCCNC(=N)N)C(=O)N[C@H](CCCNC(=N)N)C(N)=O [SEQ ID NO: 10, Ac-crrarrr-NH2] (Ac-[dC][dR][dR][dA][dR][dR][dR]-NH2)	pEC50 [1, 4]: 5.96; duration of decreased PTH [2]: at least four hours; PTH-lowering activity in normal rats [2, 6]: below the detection limit or essentially zero; % PTH reduction of baseline at 1 hour post IV admin. of 0.5 mg/kg compound ([2]; Table 1): 0%; 0.5 mg/kg IV bolus % PTH AUC of saline control [2, 7]: 0%
< 3.00		CC(=O)N[C@H](C)C(=O)N[C@H](CCCNC(=N)N)C(=O)N[C@H](CCCNC(=N)N)C(=O)N[C@H](CCCNC(=N)N)C(=O)N[C@H](C)C(=O)N[C@H](CCCNC(=N)N)C(N)=O [SEQ ID NO: 29, Ac-arrrar-NH2] (Ac-[dA][dR][dR][dR][dA][dR]-NH2)	potency to activate the human CaSR in vitro ([1]; HEK-293 cell assay): dramatically reduced the ability of the compound to activate the CaSR; PTH-lowering activity in normal rats ([2]; 9 mg/kg IV bolus, FIG. 2B): did not reduce PTH concentration
6.00		CC(=O)NCCC(=O)N[C@H](CS)C(=O)N[C@H](CCCNC(=N)N)C(=O)N[C@H](CCCNC(=N)N)C(=O)N[C@H](CCCNC(=N)N)C(=O)N[C@H](CCCNC(=N)N)C(=O)N[C@H](CCCNC(=N)N)C(=O)N[C@H](CCCNC(=N)N)C(N)=O [SEQ ID NO: 30, Ac-bAla-crrrrrr-NH2] (Ac-[βAla][dC][dR][dR][dR][dR][dR][dR]-NH2)	0.5 mg/kg IV bolus % PTH AUC of saline control ([2]; Table 3, AUC 1-4 h): 0%
5.70		CC(=O)N[C@H](CCS)C(=O)N[C@H](CCCNC(=N)N)C(=O)N[C@H](CCCNC(=N)N)C(=O)N[C@H](CCCNC(=N)N)C(=O)N[C@H](CCCNC(=N)N)C(=O)N[C@H](CCCNC(=N)N)C(=O)N[C@H](CCCNC(=N)N)C(N)=O [SEQ ID NO: 32, Ac-dHcy-rrrrrr-NH2]	0.5 mg/kg IV bolus % PTH AUC of saline control ([2]; Table 3, AUC 1-4 h): 21%
4.51		CC(=O)N[C@H](CS)C(=O)N[C@H](CCC(=O)O)C(=O)N[C@H](CCCNC(=N)N)C(=O)N[C@H](CCCNC(=N)N)C(=O)N[C@H](CCCNC(=N)N)C(=O)N[C@H](C)C(=O)N[C@H](CCCNC(=N)N)C(N)=O [SEQ ID NO: 69, Ac-cerrrar-NH2] (Ac-[dC][dE][dR][dR][dR][dA][dR]-NH2)	0.5 mg/kg IV bolus % PTH AUC of saline control ([2]; Table 6, AUC 1-4 h): 103%
4.46	1.1 fold	CC(=O)N[C@H](CS)C(=O)N[C@H](C)C(=O)N[C@H](CCCCN)C(=O)N[C@H](CCCNC(=N)N)C(=O)N[C@H](CCCNC(=N)N)C(=O)N[C@H](C)C(=O)N[C@H](CCCNC(=N)N)C(N)=O [SEQ ID NO: 72, Ac-cakrrar-NH2] (Ac-[dC][dA][dK][dR][dR][dA][dR]-NH2)	
4.51	1.4 fold	CC(=O)N[C@H](CS)C(=O)N[C@H](C)C(=O)N[C@H](CCCNC(=N)N)C(=O)N[C@H](CCCCN)C(=O)N[C@H](CCCNC(=N)N)C(=O)N[C@H](C)C(=O)N[C@H](CCCNC(=N)N)C(N)=O [SEQ ID NO: 73, Ac-carkrar-NH2] (Ac-[dC][dA][dR][dK][dR][dA][dR]-NH2)	
5.35		CC(=O)N[C@H](CS)C(=O)N[C@H](C)C(=O)N[C@H](C)C(=O)N[C@H](CCCNC(=N)N)C(=O)N[C@H](CCCNC(=N)N)C(=O)N[C@H](CCCNC(=N)N)C(=O)N[C@H](CCCNC(=N)N)C(=O)N[C@H](CCCNC(=N)N)C(=O)N[C@H](CCCNC(=N)N)C(N)=O [SEQ ID NO: 76, Ac-caarrrrrr-NH2] (Ac-[dC][dA][dA][dR][dR][dR][dR][dR][dR]-NH2)	
4.89		CC(=O)N[C@H](CS)C(=O)N[C@H](C)C(=O)N[C@H](CCCNC(=N)N)C(=O)N[C@H](CCCNC(=N)N)C(=O)N[C@H](CCCNC(=N)N)C(=O)N[C@H](C)C(=O)N[C@H](CCCNC(=N)N)C(=O)N[C@H](C)C(=O)N[C@H](CCCNC(=N)N)C(N)=O [SEQ ID NO: 79, Ac-carrrarar-NH2] (Ac-[dC][dA][dR][dR][dR][dA][dR][dA][dR]-NH2)	
5.96		N=C(N)NCCC[C@@H](NC(=O)[C@@H](CCCNC(=N)N)NC(=O)[C@@H](CCCNC(=N)N)NC(=O)[C@@H](CCCNC(=N)N)NC(=O)[C@@H](CCCNC(=N)N)NC(=O)[C@@H](CCCNC(=N)N)NC(=O)[C@H](N)CS)C(N)=O [SEQ ID NO: 80, crrrrrr-NH2]	

Compound	pEC50 [1, 5]	Histamine in vitro Fold change of non-treated at 10 uM [3]	also measured
CC(=O)N[C@H](CSSCCC(=O)O)C(=O)N[C@H](C)C(=O)N[C@H](CCCNC(=N)N)C(=O)N[C@H](CCCNC(=N)N)C(=O)N[C@H](CCCNC(=N)N)C(=O)N[C@H](C)C(=O)N[C@H](CCCNC(=N)N)C(N)=O [SEQ ID NO: 56, Ac-c(Mpa)arrrar-NH2]	4.68		0.5 mg/kg IV bolus % PTH AUC of saline control ([2]; Table 8, AUC 1-4 h): 25%
CC(=O)N[C@H](CS)C(=O)N[C@H](C)C(=O)N[C@H](CCCNC(=N)N)C(=O)N[C@H](C)C(=O)N[C@H](CCCNC(=N)N)C(=O)N[C@H](C)C(=O)N[C@H](CCCNC(=N)N)C(=O)N[C@H](C)C(=O)N[C@H](CCCNC(=N)N)C(N)=O [SEQ ID NO: 78, Ac-carararar-NH2] (Ac-[dC][dA][dR][dA][dR][dA][dR][dA][dR]-NH2)	5.28		
Ac-c(PEG2-C)arrrar-NH2 (XXXXXXX; D-residues) [SEQ ID NO: 57]	5.64		
Ac-c(PEG2-C)rrrrrr-NH2 (XXXXXXX; D-residues) [SEQ ID NO: 59]	7.70		
